Source: ChEMBL document CHEMBL1201862, “PubChem BioAssay data set” (2004)
Activity calls are given as the source filed them.

Columns and labels:
[1] = C. albicans growth with fluconazole, confirmation, fluorescence, retest (AID 2467); assay type: functional, cell-based
[2] = NIH-3T3 fibroblast cytotoxicity, dose response, cytotoxicity control, cell-based, fluorescence, Alamar Blue, secondary assay (AID 2327); assay type: functional;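 also: NIH-3T3 mouse fibroblasts cultured with fluconazole at 8 µg/mL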
HeLa = experiment: HeLa cell cytotoxicity, dose response, cytotoxicity control for MITF activator project, CellTiter-Glo luminescence, cherry-pick samples (AID 540259); assay type: functional, cell-based; details: Homo sapiens
[3] = cytotoxicity toward NIH3T3 fibroblasts, dose response, counter-screen, cell-based, ATP luminescence, mouse fibroblasts (AID 2010); assay type: functional;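 also: cells exposed to compound for about 90 hours before reading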
[4] = inhibitors of intracellular T. cruzi replication, confirmation, NIH3T3 host cells, beta-gal luminescence (AID 2044); assay type: functional, cell-based;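 also: intracellular parasites grown in NIH/3T3 mouse fibroblasts as host cells; luminescent beta-galactosidase reporter signal from transgenic T. cruzi replicating inside host cells; inhibitors lower the luminescence signal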
[5] = Shn3 3'UTR reporter inhibitors, dose response, cell-based, Clone20 osteoblasts, firefly luciferase, cherry-picked (AID 624132); assay type: functional;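 also: firefly luciferase luminescence from reporter carrying the Shn3 3'UTR in osteoblasts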
[6] = control 3'UTR Renilla luciferase suppression, dose response, counter-screen for Shn3 inhibitor project, cell-based, Clone20-Shn3RL, cherry-picked (AID 624133); assay type: functional
Genome polyprotein = Genome polyprotein (dengue virus type 2, UniProt P29990); experiment: Dengue-2 NS5 methyltransferase inhibitors, primary screen, biochemical, confirmation dose response (AID 588689); assay type: functional
Genome polyprotein, sequence (P29990 2492-3391 limits assumed): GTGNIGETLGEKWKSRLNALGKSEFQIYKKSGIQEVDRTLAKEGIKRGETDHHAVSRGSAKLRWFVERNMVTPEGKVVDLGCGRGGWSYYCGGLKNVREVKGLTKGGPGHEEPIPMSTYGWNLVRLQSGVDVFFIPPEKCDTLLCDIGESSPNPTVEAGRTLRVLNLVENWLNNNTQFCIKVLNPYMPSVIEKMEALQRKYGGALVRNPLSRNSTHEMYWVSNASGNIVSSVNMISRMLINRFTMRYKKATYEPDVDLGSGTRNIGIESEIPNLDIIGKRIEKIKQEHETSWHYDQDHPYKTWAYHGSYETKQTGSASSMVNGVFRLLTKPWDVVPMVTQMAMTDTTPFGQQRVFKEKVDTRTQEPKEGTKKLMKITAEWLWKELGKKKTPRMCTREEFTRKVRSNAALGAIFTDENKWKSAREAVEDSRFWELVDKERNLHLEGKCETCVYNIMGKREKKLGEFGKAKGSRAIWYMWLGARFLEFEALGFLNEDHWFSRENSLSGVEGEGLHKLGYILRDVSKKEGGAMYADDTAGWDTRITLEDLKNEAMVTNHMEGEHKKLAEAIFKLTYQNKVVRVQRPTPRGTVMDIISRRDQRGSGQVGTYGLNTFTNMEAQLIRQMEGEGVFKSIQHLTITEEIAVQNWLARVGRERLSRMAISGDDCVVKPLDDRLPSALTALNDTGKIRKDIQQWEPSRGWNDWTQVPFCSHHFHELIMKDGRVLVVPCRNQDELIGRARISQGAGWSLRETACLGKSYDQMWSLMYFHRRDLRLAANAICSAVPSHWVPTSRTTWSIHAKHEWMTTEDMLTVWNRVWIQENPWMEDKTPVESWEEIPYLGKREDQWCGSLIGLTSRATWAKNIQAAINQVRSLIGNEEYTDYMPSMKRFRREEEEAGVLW

cells = assay type: functional
[7] = target: T1, Calpain-2 catalytic subunit (Sus scrofa, UniProt P43367); experiment: pig calpain II inhibitor potency, dose response, biochemical, fluorogenic peptide substrate (AID 1420); assay type: functional
T1 sequence (P43367 whole entry): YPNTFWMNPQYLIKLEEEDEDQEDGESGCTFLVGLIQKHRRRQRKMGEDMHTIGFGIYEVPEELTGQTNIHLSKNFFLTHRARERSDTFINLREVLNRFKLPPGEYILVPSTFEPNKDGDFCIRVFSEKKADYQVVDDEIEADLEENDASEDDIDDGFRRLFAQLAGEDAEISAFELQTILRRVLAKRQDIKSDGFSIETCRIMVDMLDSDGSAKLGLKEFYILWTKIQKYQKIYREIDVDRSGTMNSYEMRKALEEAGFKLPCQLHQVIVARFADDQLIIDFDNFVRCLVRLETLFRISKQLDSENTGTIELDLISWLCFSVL

Cytochrome P450 1A2 = target: T2, Cytochrome P450 1A2 (Homo sapiens, UniProt P05177);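 also: PubChem cytochrome P450 panel assay, CYP1A2 panel member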
T2 sequence (P05177 whole entry): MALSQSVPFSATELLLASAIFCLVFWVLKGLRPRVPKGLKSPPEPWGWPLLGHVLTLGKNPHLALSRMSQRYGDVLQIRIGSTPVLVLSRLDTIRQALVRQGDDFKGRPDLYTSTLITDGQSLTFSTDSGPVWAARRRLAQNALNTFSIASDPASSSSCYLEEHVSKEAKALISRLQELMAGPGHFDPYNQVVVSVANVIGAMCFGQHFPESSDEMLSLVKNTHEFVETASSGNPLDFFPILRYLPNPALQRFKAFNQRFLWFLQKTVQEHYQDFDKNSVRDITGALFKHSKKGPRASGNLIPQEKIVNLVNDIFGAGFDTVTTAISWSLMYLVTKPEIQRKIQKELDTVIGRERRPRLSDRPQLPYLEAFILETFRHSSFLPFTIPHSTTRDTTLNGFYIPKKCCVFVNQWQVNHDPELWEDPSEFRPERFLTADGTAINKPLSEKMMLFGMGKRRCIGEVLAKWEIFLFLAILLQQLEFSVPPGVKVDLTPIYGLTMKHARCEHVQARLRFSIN

Cytochrome P450 2C19 = Cytochrome P450 2C19 (Homo sapiens, UniProt P33261); experiment: Cytochrome panel assay with activity outcomes. Panel member name: p450-cyp2c19 Compounds with AC50 equal or less than 10 uM are considered active; assay type: functional; details: read-out: AC50
Cytochrome P450 2C19, sequence (P33261 whole entry): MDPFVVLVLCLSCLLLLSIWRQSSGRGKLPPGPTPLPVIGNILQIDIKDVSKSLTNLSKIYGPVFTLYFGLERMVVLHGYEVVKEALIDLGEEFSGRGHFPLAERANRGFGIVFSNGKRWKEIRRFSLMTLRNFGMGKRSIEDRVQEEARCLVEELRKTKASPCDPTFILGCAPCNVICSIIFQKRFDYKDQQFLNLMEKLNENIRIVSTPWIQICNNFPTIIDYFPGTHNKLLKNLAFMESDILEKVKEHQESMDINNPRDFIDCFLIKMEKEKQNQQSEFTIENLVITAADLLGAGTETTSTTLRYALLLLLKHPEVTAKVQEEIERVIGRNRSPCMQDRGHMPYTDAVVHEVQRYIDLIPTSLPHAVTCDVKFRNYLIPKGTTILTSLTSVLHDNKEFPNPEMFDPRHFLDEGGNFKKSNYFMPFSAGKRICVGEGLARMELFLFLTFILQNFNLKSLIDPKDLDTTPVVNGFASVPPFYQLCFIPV

Cytochrome P450 2C9 = Cytochrome P450 2C9 (Homo sapiens, UniProt P11712)
Cytochrome P450 2C9, sequence (P11712 whole entry): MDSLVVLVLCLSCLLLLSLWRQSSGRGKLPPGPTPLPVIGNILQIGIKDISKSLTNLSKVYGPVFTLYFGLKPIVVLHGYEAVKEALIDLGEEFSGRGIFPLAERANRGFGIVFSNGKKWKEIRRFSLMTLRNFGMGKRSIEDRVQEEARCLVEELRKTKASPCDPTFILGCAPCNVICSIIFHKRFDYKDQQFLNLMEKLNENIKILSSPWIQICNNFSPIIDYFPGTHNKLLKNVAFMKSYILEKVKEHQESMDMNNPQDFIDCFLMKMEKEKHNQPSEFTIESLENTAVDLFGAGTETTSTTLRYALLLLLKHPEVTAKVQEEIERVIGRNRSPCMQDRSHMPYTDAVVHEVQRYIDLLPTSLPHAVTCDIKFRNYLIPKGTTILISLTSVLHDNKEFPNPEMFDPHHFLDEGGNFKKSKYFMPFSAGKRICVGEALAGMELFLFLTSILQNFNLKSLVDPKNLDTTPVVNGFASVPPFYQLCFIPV

Cytochrome P450 2D6 = Cytochrome P450 2D6 (Homo sapiens, UniProt P10635);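 also: CYP2D6 member of a cytochrome P450 panel assay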
Cytochrome P450 2D6, sequence (P10635 whole entry): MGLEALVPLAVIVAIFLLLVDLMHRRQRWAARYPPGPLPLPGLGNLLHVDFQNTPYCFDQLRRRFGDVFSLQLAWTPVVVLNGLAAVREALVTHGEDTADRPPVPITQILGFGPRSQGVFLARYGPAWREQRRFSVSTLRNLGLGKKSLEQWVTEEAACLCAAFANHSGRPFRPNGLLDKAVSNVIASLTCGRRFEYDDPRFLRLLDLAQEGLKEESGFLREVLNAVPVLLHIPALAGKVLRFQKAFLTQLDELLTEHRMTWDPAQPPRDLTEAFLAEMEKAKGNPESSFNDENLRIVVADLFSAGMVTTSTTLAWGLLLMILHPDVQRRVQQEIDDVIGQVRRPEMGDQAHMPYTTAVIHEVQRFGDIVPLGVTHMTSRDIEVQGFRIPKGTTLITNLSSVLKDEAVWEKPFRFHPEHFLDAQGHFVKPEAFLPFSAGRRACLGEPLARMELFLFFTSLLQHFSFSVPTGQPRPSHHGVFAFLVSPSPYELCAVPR

Nonstructural protein 1 = Nonstructural protein 1 (Influenza A virus, UniProt Q194T2); assay type: functional, Influenza A virus (A/California/07/2009(H1N1))
Nonstructural protein 1, sequence (Q194T2 whole entry): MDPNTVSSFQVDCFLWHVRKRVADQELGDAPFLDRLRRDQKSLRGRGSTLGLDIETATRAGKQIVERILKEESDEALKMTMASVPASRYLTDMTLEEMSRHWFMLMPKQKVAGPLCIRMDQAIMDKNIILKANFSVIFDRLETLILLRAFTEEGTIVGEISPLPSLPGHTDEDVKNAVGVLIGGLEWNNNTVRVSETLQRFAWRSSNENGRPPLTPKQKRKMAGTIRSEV

[8] = inhibitors of SNCA 5'UTR-driven reporter translation, confirmation, H4 neuroglioma cells, luminescence (AID 1988); assay type: functional, cell-based
[9] = inhibitors of firefly luciferase expression or activity, dose response, H4 neuroglioma cells, luminescence (AID 1990); assay type: functional, cell-based
[10] = Luminescence Cell-Based Dose Response HTS to Identify Inhibitors of 5'UTR Stem-Loop Driven Prion Protein mRNA Translation in H4 Neuroglioblastoma Cells. [Related pubchem assays: 1827 (Project Summary), 1813 (Primary HTS)]; assay type: functional
Protein skinhead-1 = target: T3, Protein skinhead-1 (Caenorhabditis elegans, UniProt P34707); assay type: functional
T3 sequence (P34707 whole entry): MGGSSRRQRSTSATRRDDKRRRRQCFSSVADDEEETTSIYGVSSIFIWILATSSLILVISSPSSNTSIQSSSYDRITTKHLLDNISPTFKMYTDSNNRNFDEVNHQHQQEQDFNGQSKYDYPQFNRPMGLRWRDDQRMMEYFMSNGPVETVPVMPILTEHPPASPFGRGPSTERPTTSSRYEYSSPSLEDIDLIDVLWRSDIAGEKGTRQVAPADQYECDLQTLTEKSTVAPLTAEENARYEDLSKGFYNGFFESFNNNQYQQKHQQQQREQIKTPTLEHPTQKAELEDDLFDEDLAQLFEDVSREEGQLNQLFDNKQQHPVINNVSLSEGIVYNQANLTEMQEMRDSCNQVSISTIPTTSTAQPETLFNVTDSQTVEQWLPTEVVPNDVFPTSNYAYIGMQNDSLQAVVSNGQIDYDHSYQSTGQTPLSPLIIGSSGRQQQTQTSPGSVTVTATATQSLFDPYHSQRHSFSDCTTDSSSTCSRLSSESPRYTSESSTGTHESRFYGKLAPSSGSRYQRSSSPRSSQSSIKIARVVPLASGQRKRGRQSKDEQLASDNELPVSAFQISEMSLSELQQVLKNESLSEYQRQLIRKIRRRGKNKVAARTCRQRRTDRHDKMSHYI

Cytochrome P450 3A4 = Cytochrome P450 3A4 (Homo sapiens, UniProt P08684);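 also: CYP3A4 tested as one member of a cytochrome P450 panel screen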
Cytochrome P450 3A4, sequence (P08684 whole entry): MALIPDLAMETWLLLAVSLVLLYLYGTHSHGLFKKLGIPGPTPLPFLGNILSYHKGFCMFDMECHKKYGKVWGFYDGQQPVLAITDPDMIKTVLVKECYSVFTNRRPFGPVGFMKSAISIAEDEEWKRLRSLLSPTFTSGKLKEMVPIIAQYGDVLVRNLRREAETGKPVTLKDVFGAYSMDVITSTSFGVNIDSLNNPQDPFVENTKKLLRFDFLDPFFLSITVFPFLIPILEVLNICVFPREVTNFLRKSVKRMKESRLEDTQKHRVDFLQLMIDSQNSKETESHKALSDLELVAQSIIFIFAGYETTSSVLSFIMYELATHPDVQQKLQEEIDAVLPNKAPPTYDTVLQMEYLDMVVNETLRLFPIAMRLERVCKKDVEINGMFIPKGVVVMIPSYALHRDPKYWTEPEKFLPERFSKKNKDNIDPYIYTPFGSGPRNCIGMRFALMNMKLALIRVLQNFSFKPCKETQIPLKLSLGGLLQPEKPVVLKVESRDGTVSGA

[11] = HepG2 cell cytotoxicity, dose response, cytotoxicity control for Shn3 inhibitor project, CellTiter-Glo, cherry-picked (AID 624134); assay type: functional, cell-based

## Cc1ccc(Nc2nc(Cl)nc(NC(C)(C)C)n2)cc1
[1]
  EC50: 1.98 µM (active)
[2]
  EC50: > 160 µM (inactive)
HeLa
  AC50: 159 µM (active)

## C=CS(=O)(=O)c1sc(Cl)c(N2CCOCC2)c1[N+](=O)[O-]
[3]
  EC50: 7.27 µM (active)
[4]
  EC50: 5.42 µM (active)
[5]
  AC50: 1.31 µM (active)
[6]
  AC50: 13.3 µM (active)
Genome polyprotein
  IC50: 11 µM (active)

## Cc1ccc(C(=O)Oc2cccc(-n3cnnn3)c2)cc1
cells
  IC50: 13.7 µM (active)
[7]
  IC50: 10.5 µM (not active)
HeLa
  AC50: > 350 µM (inactive)

## COC(=O)C1=CN(c2cccc(C)c2)C=C(C(=O)OC)C1c1cc(OC)c(O)c([N+](=O)[O-])c1
Genome polyprotein
  IC50: 56.5 µM (active)

## CC(=O)c1cccc(NC(=O)Cc2ccc3c(c2)CCCC3)c1
Cytochrome P450 1A2
  AC50: 25.1 µM (inconclusive)
Cytochrome P450 2C19
  AC50: 3.16 µM (inconclusive)
Cytochrome P450 2C9
  AC50: inconclusive
Cytochrome P450 2D6
  AC50: 4.47 µM (inconclusive)

## CCOC(=O)C1=NN(c2ccccc2)C(=O)/C1=C\c1ccc(N(C)C)cc1
Nonstructural protein 1
  IC50: > 100 µM (active)

## CCCCCc1cc(=O)oc2c(C(CCN(CC)CC)c3ccc(N(C)C)cc3)c(OC)cc(OC)c12 (configuration not stated)
Nonstructural protein 1
  IC50: 9.17 µM (active)

## CC(=O)N=C(N)Nc1nc(=O)c2ccccc2s1
HeLa
  AC50: 69.2 µM (active)

## CNc1nc(Cl)nc(NC(C)(C)C)n1
[8]
  EC50: > 120 µM (not active)
[9]
  EC50: 12.7 µM (active)
[10]
  EC50: > 120 µM (not active)
Cytochrome P450 2C9
  AC50: inconclusive

## C(=C\c1nnc(-c2cccs2)o1)/c1ccccc1
Protein skinhead-1
  IC50: 11.9 µM (active)
HeLa
  AC50: 50.6 µM (active)

## CCNc1ncc2nc(-c3cn(C)c4ccccc34)c(=O)n(-c3ccccc3)c2n1
Cytochrome P450 3A4
  AC50: 6.31 µM (inconclusive)
Cytochrome P450 1A2
  AC50: 15.8 µM (inconclusive)
Cytochrome P450 2C9
  AC50: inconclusive
Cytochrome P450 2D6
  AC50: 25.1 µM (inconclusive)

## COc1ccc(C2/C=C\CN(S(=O)(=O)c3ccc(C)cc3)[C@H](Cc3ccccc3)C(=O)N2Cc2ccc(F)cc2)cc1 (some centres not stated)
[5]
  AC50: 12.9 µM (active)
[6]
  AC50: 25.5 µM (active)
[11]
  AC50: > 70 µM (inactive)
